Where no end group is shown, it is not given here.
Experiments:
DPP-IV = assay: in vitro; settings: human, isolated enzyme dpp iv
Description: Stability test for DPP-IV in vitro was performed as previously described.

NOD mice = settings: 210 nmol/kg s.c. twice weekly for 24 weeks
Description: Female 4-week-old NOD mice were obtained from Beijing HFK Bioscience Co. Ltd. (Beijing, China). NOD mice were randomly divided into 4 groups: vehicle, PGLP-1, VP and PGLP-1-VP, and each group was subcutaneously injected twice weekly with placebo [Lipofundin[32] (B. Braun Melsungen AG, Melsungen, Germany)] or 210 nmol/kg of peptides for 24 weeks. Body weight and blood glucose were measured once every 2 weeks until the end of the observation period. NOD mice were considered diabetic when blood glucose concentrations exceeded 200 mg/dL for 2 consecutive measurements. The onset time and death time of diabetic mice were calculated. Indexes of dead mice were shown as the last blood glucose or weight data. Blood samples were collected retro-orbital and centrifuged, and then serum was collected. Serum C-peptide levels and transforming growth factor-β1 (TGF-β1) were measured by enzyme-linked immunosorbent kits (Jiancheng Bio-Engineering Institute Co., Ltd. Nanjing, China).

human GLP-1R = human GLP-1R (Homo sapiens, UniProt P43220); assay: cell-based
Description: Human embryonic kidney (HEK-293) cells were obtained from ATCC and cultured in growing media (DMEM: 25 mM glucose, 10% FBS, 100 µg/mL penicillin and 100 µg/mL streptomycin).

Sequence of human GLP-1R (P43220 24-463): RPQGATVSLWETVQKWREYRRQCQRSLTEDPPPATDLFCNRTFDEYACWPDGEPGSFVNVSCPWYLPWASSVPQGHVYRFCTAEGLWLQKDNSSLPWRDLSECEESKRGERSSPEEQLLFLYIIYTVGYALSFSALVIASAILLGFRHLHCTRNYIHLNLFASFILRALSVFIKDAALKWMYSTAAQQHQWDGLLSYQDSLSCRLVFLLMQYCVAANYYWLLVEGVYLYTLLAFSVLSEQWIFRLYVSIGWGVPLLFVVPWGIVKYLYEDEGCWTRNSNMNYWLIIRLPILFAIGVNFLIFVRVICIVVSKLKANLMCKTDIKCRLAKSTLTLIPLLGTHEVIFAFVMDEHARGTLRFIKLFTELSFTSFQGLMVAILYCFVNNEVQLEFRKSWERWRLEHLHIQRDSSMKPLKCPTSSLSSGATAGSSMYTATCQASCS

Row | Compound | remaining at 10 h, 10 µM (DPP-IV) [%] | body weights compared to controls (NOD mice) | EC50 (human GLP-1R) [µM]
1 | CC[C@H](C)[C@H](NC(=O)[C@H](Cc1ccccc1)NC(=O)[C@H](CCC(=O)O)NC(=O)[C@H](CCCCN)NC(=O)[C@H](C)NC(=O)[C@H](C)NC(=O)[C@H](CCC(N)=O)NC(=O)CNC(=O)[C@H](CCC(=O)O)NC(=O)[C@H](CC(C)C)NC(=O)[C@H](Cc1ccc(O)cc1)NC(=O)[C@H](CO)NC(=O)[C@H](CO)NC(=O)[C@@H](NC(=O)[C@H](CC(=O)O)NC(=O)[C@H](CO)NC(=O)[C@@H](NC(=O)[C@H](Cc1ccccc1)NC(=O)[C@@H](NC(=O)CNC(=O)[C@H](CCC(=O)O)NC(=O)[C@H](C)NC(=O)[C@@H](N)Cc1c[nH]cn1)[C@@H](C)O)[C@@H](C)O)C(C)C)C(=O)N[C@@H](C)C(=O)N[C@@H](Cc1c[nH]c2ccccc12)C(=O)N[C@@H](CC(C)C)C(=O)N[C@H](C(=O)N[C@@H](CCCCN)C(=O)NCC(=O)N[C@@H](CCCN=C(N)N)C(=O)NCC(=O)O)C(C)C [GLP-1, Glucagon-like peptide-1] | 6.3 |  | 
2 | HGEGTFTSDVSSYLEGQAAKEFIAWLVKGRGPGVLGGGCRCIPALDSLTPANED (cysteines drawn unpaired) [PGLP-1-VP] |  | not affected | 0.139 ± 0.037

Reference: PMC7878925, “Continuous stimulation of dual-function peptide PGLP-1-VP inhibits the morbidity and mortality of NOD mice through anti-inflammation and immunoregulation” (Scientific Reports, 2021)
